Results taken from the NIST ThermoML archive (doi:10.1021/acs.jced.8b00132).
Values joined by “and” are separate entries in the source; they are usually repeats but may differ in a detail not shown here. Equal values may be shown once. ± gives the expanded uncertainty stated by the source.

Conditions: transient hot wire

O=C(C(F)(F)C(F)(F)F)C(F)(C(F)(F)F)C(F)(F)F [dodecafluoro-2-methylpentan-3-one]
Conditions	thermal conductivity
301.59 K, 15869 kPa, Liquid	0.06313 ± 0.0013 W/m/K
301.6 K, 48023 kPa, Liquid	0.07341 ± 0.0015 W/m/K
301.6 K, 48035 kPa, Liquid	0.07339 ± 0.0015 W/m/K
301.61 K, 9935 kPa, Liquid	0.06132 ± 0.0013 W/m/K
301.61 K, 9939 kPa, Liquid	0.0613 ± 0.0013 W/m/K
301.63 K, 185 kPa, Liquid	0.05695 ± 0.0012 W/m/K
301.63 K, 186 kPa, Liquid	0.05695 ± 0.0012 W/m/K
301.65 K, 38555 kPa, Liquid	0.07081 ± 0.0015 W/m/K
301.65 K, 38556 kPa, Liquid	0.07081 ± 0.0015 W/m/K
301.66 K, 4510 kPa, Liquid	0.05903 ± 0.0012 W/m/K
301.67 K, 181 kPa, Liquid	0.05696 ± 0.0012 W/m/K and 0.05695 ± 0.0012 W/m/K
301.67 K, 4513 kPa, Liquid	0.05926 ± 0.0012 W/m/K
301.68 K, 68591 kPa, Liquid	0.07706 ± 0.0016 W/m/K
301.68 K, 68604 kPa, Liquid	0.07747 ± 0.0016 W/m/K
301.69 K, 29956 kPa, Liquid	0.06826 ± 0.0014 W/m/K
301.69 K, 29958 kPa, Liquid	0.06828 ± 0.0014 W/m/K
301.69 K, 68130 kPa, Liquid	0.07843 ± 0.0016 W/m/K
301.7 K, 58476 kPa, Liquid	0.07534 ± 0.0015 W/m/K
301.7 K, 68201 kPa, Liquid	0.07832 ± 0.0016 W/m/K
301.71 K, 22368 kPa, Liquid	0.06584 ± 0.0014 W/m/K and 0.06583 ± 0.0014 W/m/K
301.71 K, 48170 kPa, Liquid	0.07234 ± 0.0015 W/m/K
301.71 K, 58480 kPa, Liquid	0.07563 ± 0.0015 W/m/K
301.72 K, 15988 kPa, Liquid	0.06294 ± 0.0013 W/m/K
301.72 K, 15989 kPa, Liquid	0.0629 ± 0.0013 W/m/K
301.72 K, 48184 kPa, Liquid	0.07274 ± 0.0015 W/m/K
301.73 K, 38646 kPa, Liquid	0.06956 ± 0.0014 W/m/K
301.73 K, 38651 kPa, Liquid	0.0696 ± 0.0014 W/m/K
301.75 K, 9736 kPa, Liquid	0.06053 ± 0.0013 W/m/K
301.75 K, 59377 kPa, Liquid	0.07624 ± 0.0016 W/m/K
301.75 K, 59380 kPa, Liquid	0.07624 ± 0.0016 W/m/K
301.75 K, 68800 kPa, Liquid	0.07711 ± 0.0016 W/m/K
301.76 K, 9735 kPa, Liquid	0.06062 ± 0.0013 W/m/K
301.76 K, 15639 kPa, Liquid	0.06344 ± 0.0013 W/m/K
301.76 K, 29978 kPa, Liquid	0.06731 ± 0.0014 W/m/K
301.76 K, 68808 kPa, Liquid	0.07639 ± 0.0016 W/m/K
301.77 K, 15644 kPa, Liquid	0.06346 ± 0.0013 W/m/K
301.78 K, 121 kPa, Liquid	0.05702 ± 0.0012 W/m/K and 0.05701 ± 0.0012 W/m/K
301.79 K, 4434 kPa, Liquid	0.05801 ± 0.0012 W/m/K
301.79 K, 4440 kPa, Liquid	0.05822 ± 0.0012 W/m/K
301.79 K, 22438 kPa, Liquid	0.06507 ± 0.0013 W/m/K
301.79 K, 22452 kPa, Liquid	0.06502 ± 0.0013 W/m/K
301.82 K, 102 kPa, Liquid	0.05674 ± 0.0012 W/m/K
301.82 K, 48012 kPa, Liquid	0.07336 ± 0.0015 W/m/K
301.82 K, 48021 kPa, Liquid	0.07338 ± 0.0015 W/m/K
301.83 K, 95 kPa, Liquid	0.05685 ± 0.0012 W/m/K
301.85 K, 9941 kPa, Liquid	0.06128 ± 0.0013 W/m/K
301.85 K, 9948 kPa, Liquid	0.06126 ± 0.0013 W/m/K
301.87 K, 38549 kPa, Liquid	0.07078 ± 0.0015 W/m/K
301.87 K, 38555 kPa, Liquid	0.07047 ± 0.0014 W/m/K
301.88 K, 34 kPa, Gas	0.01211 ± 0.0023 W/m/K
301.88 K, 35 kPa, Gas	0.01203 ± 0.0028 W/m/K
301.9 K, 185 kPa, Liquid	0.05689 ± 0.0012 W/m/K
301.91 K, 185 kPa, Liquid	0.05664 ± 0.0012 W/m/K
301.91 K, 4509 kPa, Liquid	0.059 ± 0.0012 W/m/K
301.91 K, 29959 kPa, Liquid	0.06823 ± 0.0014 W/m/K
301.91 K, 67990 kPa, Liquid	0.07824 ± 0.0016 W/m/K
301.91 K, 68063 kPa, Liquid	0.07829 ± 0.0016 W/m/K
301.92 K, 29958 kPa, Liquid	0.06824 ± 0.0014 W/m/K
301.93 K, 181 kPa, Liquid	0.05689 ± 0.0012 W/m/K and 0.05687 ± 0.0012 W/m/K
301.94 K, 4507 kPa, Liquid	0.05898 ± 0.0012 W/m/K
301.95 K, 22372 kPa, Liquid	0.06576 ± 0.0014 W/m/K
301.95 K, 22377 kPa, Liquid	0.06549 ± 0.0014 W/m/K
301.97 K, 59371 kPa, Liquid	0.07623 ± 0.0016 W/m/K
301.97 K, 59377 kPa, Liquid	0.07622 ± 0.0016 W/m/K
302.01 K, 15644 kPa, Liquid	0.06317 ± 0.0013 W/m/K
302.01 K, 15646 kPa, Liquid	0.06342 ± 0.0013 W/m/K
302.03 K, 121 kPa, Liquid	0.05696 ± 0.0012 W/m/K
302.04 K, 15871 kPa, Liquid	0.0631 ± 0.0013 W/m/K
302.04 K, 15874 kPa, Liquid	0.0632 ± 0.0013 W/m/K
302.04 K, 48005 kPa, Liquid	0.07334 ± 0.0015 W/m/K
302.05 K, 48000 kPa, Liquid	0.07334 ± 0.0015 W/m/K
302.09 K, 9944 kPa, Liquid	0.06121 ± 0.0013 W/m/K
302.09 K, 68569 kPa, Liquid	0.07801 ± 0.0016 W/m/K
302.09 K, 68583 kPa, Liquid	0.07807 ± 0.0016 W/m/K
302.1 K, 9951 kPa, Liquid	0.06119 ± 0.0013 W/m/K
302.1 K, 38544 kPa, Liquid	0.07073 ± 0.0015 W/m/K
302.11 K, 38546 kPa, Liquid	0.07074 ± 0.0015 W/m/K
302.13 K, 58450 kPa, Liquid	0.07511 ± 0.0015 W/m/K
302.13 K, 58453 kPa, Liquid	0.07504 ± 0.0015 W/m/K
302.15 K, 15982 kPa, Liquid	0.0631 ± 0.0013 W/m/K
302.15 K, 29954 kPa, Liquid	0.06819 ± 0.0014 W/m/K and 0.0682 ± 0.0014 W/m/K
302.15 K, 48164 kPa, Liquid	0.07319 ± 0.0015 W/m/K
302.16 K, 15975 kPa, Liquid	0.06301 ± 0.0013 W/m/K
302.16 K, 48161 kPa, Liquid	0.07327 ± 0.0015 W/m/K
